Laboratory results taken from the OligoGym collection.
Where “and” joins values, the source holds several entries; their conditions need not be identical. Equal values may be shown once. After the bases stand the sugars from the 5' end (letter, count) and the backbone: PS all phosphorothioate, else s phosphorothioate and o phosphodiester by linkage. Methylation of C is not given here. e = 2'-O-(2-methoxyethyl) (MOE); k = constrained ethyl (cEt); d = 2'-deoxy (DNA)

Target: IRF5
Details: ASO

Sequence | target mRNA inhibition (KARPAS-229, 4 µM) | also measured
CACTGACACAGGCGGA (sugars kdddddddddddekek, PS) | 0% | –
CACTGACACAGGCGGA (sugars kkddddddddddkeke, PS) | 0% | –
CACTGACACAGGCGGA (sugars kkdddddddddkekek, PS) | 0% | –
CACTGACACAGGCGGA (sugars kkkddddddddkdkdk, PS) | 0% | –
CAGGTTCTTGGACTCT (sugars k3 d10 k3, PS) | 0% | –
CAGGTTCTTGGACTCT (sugars kddddddddddkekek, PS) | 0% | –
CAGGTTCTTGGACTCT (sugars kekdddddddddeekk, PS) | 48% and 62% | target mRNA inhibition (KARPAS-229, 0.44444 µM): 34%; target mRNA inhibition (KARPAS-229, 1.33333 µM): 48%; target mRNA inhibition (KARPAS-229, 12 µM): 74%
CAGGTTCTTGGACTCT (sugars kkdddddddddkekek, PS) | 0% | –
CAGGTTCTTGGACTCT (sugars kkkddddddddkdkdk, PS) | 0% | –
CATCAGCTTTCTTGTC (sugars k3 d10 k3, PS) | 28% | –
CATCTCCACATCAGTC (sugars kddddddddddkekek, PS) | 25% | –
CATTCCATATACACAC (sugars k2 d8 e4 k2, PS) | 21% | –
CATTCCATATACACAC (sugars k3 d9 k3 e1, PS) | 39% | –
CATTCCATATACACAC (sugars kkdddddddddkekek, PS) | 54% | –
CATTCCATATACACAC (sugars kkkdddddddddkeke, PS) | 28% | –
CATTCCATATACACAC (sugars kkkddddddddkdkdk, PS) | 40% | –
CATTCCATATACACAC (sugars kkkddddddddkekek, PS) | 32% | –
CATTCTATGCCTTTTA (sugars kkddddddddkekekk, PS) | 56% | –
CCAATGCAACATCCAT (sugars kkddddddddddkeke, PS) | 0% | –
CCAATGCAACATCCAT (sugars kkdddddddddkdkdk, PS) | 0% | –
CCAATGCAACATCCAT (sugars kkdddddddddkekek, PS) | 0% | –
CCAATTTTGCATTCCA (sugars kkddddddddddkeke, PS) | 75% and 57% | target mRNA inhibition (KARPAS-229, 0.44444 µM): 47%; target mRNA inhibition (KARPAS-229, 1.33333 µM): 66%; target mRNA inhibition (KARPAS-229, 12 µM): 82%
CCAATTTTGCATTCCA (sugars kkdddddddddkekek, PS) | 11% | –
CCACTGTGTACCCCAT (sugars k3 d9 k3 e1, PS) | 57% | –

Sequence | target mRNA inhibition (KARPAS-229, 4 µM) | also measured
CCACTGTGTACCCCAT (sugars kkddddddddddkeke, PS) | 19% | –
CCACTGTGTACCCCAT (sugars kkdddddddddkdkdk, PS) | 54% | –
CCCAATGCAACATCCA (sugars kdddddddddkekeke, PS) | 0% | –
CCCAATGCAACATCCA (sugars kkdddddddddkekek, PS) | 0% | –
CCCAATGCAACATCCA (sugars kkddddddddkekekk, PS) | 0% | –
CCCAATGCAACATCCA (sugars kkkddddddddkekek, PS) | 0% | –
CCTCATGAGTAATAGG (sugars k3 d10 k3, PS) | 0% | –
CCTTCTGCAGGGAGTC (sugars kkdddddddddkekek, PS) | 0% | –
CCTTCTGCAGGGAGTC (sugars kkkdddddddddkeke, PS) | 1% | –
CCTTCTGCAGGGAGTC (sugars kkkddddddddkdkdk, PS) | 0% | –
CGGTCTTTGAGGTCTG (sugars kdddddddddkekeke, PS) | 40% | –
CGGTCTTTGAGGTCTG (sugars kkkdddddddddkeke, PS) | 38% | –
CTAAACCATTCTATGC (sugars k3 d10 k3, PS) | 0% | –
CTGACACAGGCGGATG (sugars kddddddddddkekek, PS) | 0% | –
CTGTCACATCTCCACA (sugars k2 d9 e3 k2, PS) | 10% | –
CTGTCACATCTCCACA (sugars kkddddddddddkeke, PS) | 19% | –
CTGTCACATCTCCACA (sugars kkdddddddddkdkdk, PS) | 6% | –
CTTCTGCAGGGAGTCA (sugars k3 d10 k3, PS) | 0% | –
CTTGGTCTTGACCTCC (sugars kkkdddddddddkeke, PS) | 15% | –
CTTTCTTGTCTAGTGT (sugars k3 d10 k3, PS) | 48% | –
GAAGTGAGTCTCAAAC (sugars kddddddddddkekek, PS) | 44% | –
GAAGTGAGTCTCAAAC (sugars kkddddddddkekekk, PS) | 27% | –
GAGTCATGGGCTGAGG (sugars kdddddddddkekeke, PS) | 0% | –
GAGTCATGGGCTGAGG (sugars kkddddddddkekekk, PS) | 0% | –

Sequence | target mRNA inhibition (KARPAS-229, 4 µM) | also measured
GAGTCTCAAACCAGGG (sugars kddddddddddkekek, PS) | 0% | –
GATGGTGTTATCTCCG (sugars k2 d8 e4 k2, PS) | 0% | –
GATGGTGTTATCTCCG (sugars k3 d9 k3 e1, PS) | 0% | –
GATGGTGTTATCTCCG (sugars kkdddddddddkdkdk, PS) | 0% | –
GATGGTGTTATCTCCG (sugars kkdddddddddkekek, PS) | 0% | –
GCACTGACACAGGCGG (sugars k3 d10 k3, PS) | 14% and 0% | –
GCACTGACACAGGCGG (sugars kdddddddddkekeke, PS) | 0% | –
GCACTGACACAGGCGG (sugars kkddddddddkekekk, PS) | 0% | –
GCTGTCACATCTCCAC (sugars kddddddddddkekek, PS) | 17% | –
GCTGTCACATCTCCAC (sugars kkddddddddkekekk, PS) | 29% | –
GCTGTCACATCTCCAC (sugars kkkdddddddddkeke, PS) | 3% | –
GCTGTCACATCTCCAC (sugars kkkddddddddkdkdk, PS) | 35% | –
GCTTGGTCTTGACCTC (sugars k2 d9 e3 k2, PS) | 10% | –
GCTTGGTCTTGACCTC (sugars kekdddddddddeekk, PS) | 46% | –
GCTTGGTCTTGACCTC (sugars kkdddddddddkekek, PS) | 33% | –
GCTTGGTCTTGACCTC (sugars kkddddddddkekekk, PS) | 21% | –
GGAAGTGAGTCTCAAA (sugars k2 d9 e3 k2, PS) | 32% | –
GGAAGTGAGTCTCAAA (sugars k3 d9 k3 e1, PS) | 49% and 71% | target mRNA inhibition (KARPAS-229, 0.44444 µM): 21%; target mRNA inhibition (KARPAS-229, 1.33333 µM): 13%; target mRNA inhibition (KARPAS-229, 12 µM): 76%
GGAAGTGAGTCTCAAA (sugars kkddddddddkekekk, PS) | 36% | –
GGACGAGTTATGGGAA (sugars k3 d10 k3, PS) | 37% | –
GGAGTGAGACGAGCAA (sugars k3 d9 k3 e1, PS) | 33% | –
GGAGTGAGACGAGCAA (sugars kkddddddddddkeke, PS) | 33% | –
GGAGTGAGACGAGCAA (sugars kkdddddddddkdkdk, PS) | 16% | –
GGAGTGAGACGAGCAA (sugars kkddddddddkekekk, PS) | 38% | –
